According to PMC7035247 (Scientific Reports, 2020):
Read-outs that look alike come from different tables or passages of the source.

Tests used:
[1] = target: T1, W(3Cyto) Pgp (W44H/W132L/W208P/W228M/W311Y/W694I/W704I/W851P) (Mus musculus, UniProt P21447, W132L/W208P/W228M/W311Y/W44H/W694I/W704I/W851P); conditions: read-out: Km(MgATP), in the presence of 30 μM verapamil
Procedure: (§2) The rate of ATP hydrolysis was measured at 37 °C, by an ATPase-linked enzyme assay[87], in the absence and presence of drugs, and statistical analysis were done as described[74],[79].

[2] = target: WL-Pgp (Trp-less Pgp, all eleven Trps substituted) (Mus musculus, UniProt P21447, W1104Y/W132L/W158Y/W208P/W228M/W311Y/W44H/W694I/W704I/W799Y/W851P); test: biochemical
WL-Pgp (Trp-less Pgp, all eleven Trps substituted), sequence (P21447 whole entry W44H/W132L/W158Y/W208P/W228M/W311Y/W694I/W704I/W799Y/W851P/W1104Y): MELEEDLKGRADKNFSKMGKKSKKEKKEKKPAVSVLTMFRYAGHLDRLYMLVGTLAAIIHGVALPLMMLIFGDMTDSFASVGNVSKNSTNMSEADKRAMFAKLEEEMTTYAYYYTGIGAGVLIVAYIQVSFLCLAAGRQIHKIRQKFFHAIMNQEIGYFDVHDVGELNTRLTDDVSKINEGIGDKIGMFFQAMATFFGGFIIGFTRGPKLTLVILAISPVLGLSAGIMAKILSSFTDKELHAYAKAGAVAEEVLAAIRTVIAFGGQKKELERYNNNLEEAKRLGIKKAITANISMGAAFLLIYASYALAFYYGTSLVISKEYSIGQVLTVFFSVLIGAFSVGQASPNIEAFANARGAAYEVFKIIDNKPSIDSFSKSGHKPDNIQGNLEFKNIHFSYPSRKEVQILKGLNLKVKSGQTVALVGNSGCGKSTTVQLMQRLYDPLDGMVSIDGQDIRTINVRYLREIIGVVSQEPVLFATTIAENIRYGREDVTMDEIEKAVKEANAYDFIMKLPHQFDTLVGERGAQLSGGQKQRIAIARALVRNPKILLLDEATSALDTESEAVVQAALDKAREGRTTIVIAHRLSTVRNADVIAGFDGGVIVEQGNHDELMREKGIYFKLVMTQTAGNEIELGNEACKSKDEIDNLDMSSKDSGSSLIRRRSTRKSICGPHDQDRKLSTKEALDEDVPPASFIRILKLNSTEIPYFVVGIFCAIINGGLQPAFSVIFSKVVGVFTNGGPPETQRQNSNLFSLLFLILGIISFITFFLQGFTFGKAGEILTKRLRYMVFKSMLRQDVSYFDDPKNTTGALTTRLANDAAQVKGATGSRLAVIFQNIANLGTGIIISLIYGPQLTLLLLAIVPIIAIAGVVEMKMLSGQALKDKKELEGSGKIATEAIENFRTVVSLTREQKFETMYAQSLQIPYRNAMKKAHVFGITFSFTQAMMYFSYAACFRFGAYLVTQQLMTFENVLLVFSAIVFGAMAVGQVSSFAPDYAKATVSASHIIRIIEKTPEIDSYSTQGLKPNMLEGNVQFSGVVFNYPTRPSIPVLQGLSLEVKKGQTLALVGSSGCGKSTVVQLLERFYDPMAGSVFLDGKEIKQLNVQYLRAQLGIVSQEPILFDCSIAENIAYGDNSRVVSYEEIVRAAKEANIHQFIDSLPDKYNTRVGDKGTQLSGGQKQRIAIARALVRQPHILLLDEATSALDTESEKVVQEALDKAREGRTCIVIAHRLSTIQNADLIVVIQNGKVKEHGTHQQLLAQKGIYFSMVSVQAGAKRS
Procedure: (§1) The rate of ATP hydrolysis was measured at 37 °C, by an ATPase-linked enzyme assay, in the absence and presence of drugs, and statistical analysis were done as described[74],[79]. For biophysical studies, Pgp was exchanged into SEC buffer (20 mM HEPES pH 7.4, 150 mM NaCl, 10% glycerol, 0.05% DDM,) by size exclusion chromatography (SEC) on Superdex 200 (1 × 30 cm column)[85].

[3] = target: WT Pgp (codon-optimized mouse mdr1a Pgp) (Mus musculus, UniProt P21447); test: biochemical
WT Pgp (codon-optimized mouse mdr1a Pgp), sequence (P21447 whole entry): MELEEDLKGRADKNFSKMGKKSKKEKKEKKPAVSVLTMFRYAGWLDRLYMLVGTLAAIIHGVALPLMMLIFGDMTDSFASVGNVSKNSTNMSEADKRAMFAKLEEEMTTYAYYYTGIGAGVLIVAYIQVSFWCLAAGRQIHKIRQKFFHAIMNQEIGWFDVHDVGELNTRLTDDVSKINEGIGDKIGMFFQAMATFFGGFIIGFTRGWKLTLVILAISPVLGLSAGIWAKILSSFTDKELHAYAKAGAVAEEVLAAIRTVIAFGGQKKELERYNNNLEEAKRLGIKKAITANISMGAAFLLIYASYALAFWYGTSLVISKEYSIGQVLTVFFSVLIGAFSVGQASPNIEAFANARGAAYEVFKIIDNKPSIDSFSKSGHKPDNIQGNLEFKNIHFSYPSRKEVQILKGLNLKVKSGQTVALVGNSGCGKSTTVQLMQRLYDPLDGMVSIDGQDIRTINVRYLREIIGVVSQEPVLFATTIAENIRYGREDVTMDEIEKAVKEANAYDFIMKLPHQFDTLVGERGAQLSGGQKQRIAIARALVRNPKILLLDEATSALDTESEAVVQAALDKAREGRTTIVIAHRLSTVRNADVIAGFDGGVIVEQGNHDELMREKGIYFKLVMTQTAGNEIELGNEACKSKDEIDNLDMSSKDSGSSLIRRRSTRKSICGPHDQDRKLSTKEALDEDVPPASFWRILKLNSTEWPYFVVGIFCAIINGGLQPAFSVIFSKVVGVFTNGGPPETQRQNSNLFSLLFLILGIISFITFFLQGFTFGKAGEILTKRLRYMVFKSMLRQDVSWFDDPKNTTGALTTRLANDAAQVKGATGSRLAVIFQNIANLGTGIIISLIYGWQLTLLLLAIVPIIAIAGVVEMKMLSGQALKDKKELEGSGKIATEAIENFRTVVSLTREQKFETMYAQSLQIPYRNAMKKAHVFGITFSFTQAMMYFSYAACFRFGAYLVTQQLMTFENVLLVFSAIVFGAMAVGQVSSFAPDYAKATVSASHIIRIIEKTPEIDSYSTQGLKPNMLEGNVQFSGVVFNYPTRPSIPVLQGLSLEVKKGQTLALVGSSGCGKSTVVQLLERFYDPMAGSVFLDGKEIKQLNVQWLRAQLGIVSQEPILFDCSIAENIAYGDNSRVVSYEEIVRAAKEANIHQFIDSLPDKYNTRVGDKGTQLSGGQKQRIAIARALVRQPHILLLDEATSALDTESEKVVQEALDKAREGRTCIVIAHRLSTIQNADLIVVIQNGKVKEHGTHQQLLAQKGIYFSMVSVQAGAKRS
Procedure: as §1

[4] = target: T1, W(3Cyto) Pgp (W44H/W132L/W208P/W228M/W311Y/W694I/W704I/W851P); test: biochemical
Procedure: as §2

[5] = tested on: S. cerevisiae JPY201 expressing Pgp variants; conditions: 30 µM doxorubicin
Procedure: Cultures of the transformants were screened again for mating efficiency. […] DNA from the 72 unique mutants was again re-transformed into JPY201 yeast cells for more detailed in vivo functional analysis of fungicidal drug resistance and yeast mating efficiency, which were performed essentially as previously described[74],[79],[84].

[6] = EC50 (concentration required for 50% stimulation of the ATPase activity), WT Pgp, mean ± SD

T1 sequence (P21447 whole entry W44H/W132L/W208P/W228M/W311Y/W694I/W704I/W851P): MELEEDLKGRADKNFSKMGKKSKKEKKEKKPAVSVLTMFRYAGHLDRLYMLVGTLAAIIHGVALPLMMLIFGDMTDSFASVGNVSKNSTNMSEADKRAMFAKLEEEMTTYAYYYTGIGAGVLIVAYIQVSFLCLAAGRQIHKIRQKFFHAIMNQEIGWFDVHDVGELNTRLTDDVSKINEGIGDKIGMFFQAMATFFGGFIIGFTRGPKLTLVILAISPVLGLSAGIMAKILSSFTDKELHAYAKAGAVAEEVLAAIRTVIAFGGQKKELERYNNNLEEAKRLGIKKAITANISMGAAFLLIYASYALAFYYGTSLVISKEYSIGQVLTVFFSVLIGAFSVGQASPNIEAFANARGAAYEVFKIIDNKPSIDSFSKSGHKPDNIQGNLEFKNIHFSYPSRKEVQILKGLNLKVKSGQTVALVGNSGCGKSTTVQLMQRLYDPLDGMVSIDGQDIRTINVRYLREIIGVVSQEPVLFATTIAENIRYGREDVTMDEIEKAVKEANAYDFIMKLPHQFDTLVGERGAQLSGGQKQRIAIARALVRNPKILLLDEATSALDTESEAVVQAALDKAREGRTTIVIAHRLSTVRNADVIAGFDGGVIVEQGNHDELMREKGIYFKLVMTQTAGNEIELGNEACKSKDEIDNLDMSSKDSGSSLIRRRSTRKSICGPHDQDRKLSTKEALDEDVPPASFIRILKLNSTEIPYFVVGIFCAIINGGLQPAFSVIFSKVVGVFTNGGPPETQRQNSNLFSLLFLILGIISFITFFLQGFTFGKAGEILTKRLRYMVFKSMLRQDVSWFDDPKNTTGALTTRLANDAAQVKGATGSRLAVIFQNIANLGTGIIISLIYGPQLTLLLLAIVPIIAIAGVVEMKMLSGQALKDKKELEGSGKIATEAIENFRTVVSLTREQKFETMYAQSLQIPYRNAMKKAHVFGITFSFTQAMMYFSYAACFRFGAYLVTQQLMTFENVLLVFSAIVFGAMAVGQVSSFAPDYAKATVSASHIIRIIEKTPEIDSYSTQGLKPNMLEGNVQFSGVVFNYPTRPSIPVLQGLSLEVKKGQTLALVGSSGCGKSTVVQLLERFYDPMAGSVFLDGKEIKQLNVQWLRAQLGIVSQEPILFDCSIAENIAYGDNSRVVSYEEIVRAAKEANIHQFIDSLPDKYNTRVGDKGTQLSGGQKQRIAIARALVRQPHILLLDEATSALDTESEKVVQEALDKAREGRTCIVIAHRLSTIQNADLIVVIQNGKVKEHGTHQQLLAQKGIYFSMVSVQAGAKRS

Row | SMILES | EC50 [4] [nM] | EC50 [2] [nM] | EC50 [3, 6] [nM] | other results
1 | Nc1ncnc2c1ncn2[C@@H]1O[C@H](COP(=O)(O)OP(=O)(O)OP(=O)(O)O)[C@@H](O)[C@H]1O [MgATP] | – | – | – | Km [1]: 400 ± 70 µM; Km ([2]; read-out: Km(MgATP), WL-Pgp, in the presence of 30 μM verapamil, text says mM range): 0.65 ± 0.07 mM; Km ([3]; read-out: Km(MgATP), WT Pgp, in the presence of 30 μM verapamil, text says mM range): 0.75 ± 0.2 mM
2 | CC(C)[C@@H]1NC(=O)[C@H](C)OC(=O)[C@@H](C(C)C)NC(=O)[C@@H](C(C)C)OC(=O)[C@H](C(C)C)NC(=O)[C@H](C)OC(=O)[C@@H](C(C)C)NC(=O)[C@@H](C(C)C)OC(=O)[C@H](C(C)C)NC(=O)[C@H](C)OC(=O)[C@@H](C(C)C)NC(=O)[C@@H](C(C)C)OC1=O [Valinomycin, valinomycin] | 230 ± 30 | 340 ± 90 | 330 ± 80 | EC50 ([3]; 50% stimulation (EC50) of ATPase function, text summary across Wt Pgp, W(3Cyto) and WL-Pgp): ~300 nM
3 | COc1cccc2c1C(=O)c1c(O)c3c(c(O)c1C2=O)C[C@@](O)(C(=O)CO)C[C@@H]3O[C@H]1C[C@H](N)[C@H](O)[C@H](C)O1 [doxorubicin] | – | – | – | Resistance to doxorubicin (relative to Wt Pgp) ([5]; yeast expressing mutant B (W(3Cyto))): 52 ± 14%; Resistance to doxorubicin (relative to Wt Pgp) ([5]; yeast expressing mutant C (eight TMD Trps replaced)): 43 ± 13%
4 | C=CC[C@@H]1/C=C(\C)C[C@H](C)C[C@H](OC)[C@H]2O[C@@](O)(C(=O)C(=O)N3CCCC[C@H]3C(=O)O[C@H](/C(C)=C/[C@@H]3CC[C@@H](O)[C@H](OC)C3)[C@H](C)[C@@H](O)CC1=O)[C@H](C)C[C@@H]2OC [FK506] | 140 ± 30 | 160 ± 40 | 84 ± 30 | –
